Read-outs that look alike come from different tables or passages of the source.
Key:
human AR [1] = molecular target: T1, human AR (Homo sapiens, UniProt P10275); assay: AR whole cell competitive binding assay (3H-DHT), transfected COS-1 cells; parameters: expressed in transfected cells; transient transfection with pRShAR; conditions: COS-1 cells, 1 nM 3H-DHT, Cheng-Prusoff from IC50
T1 sequence (P10275 1-920): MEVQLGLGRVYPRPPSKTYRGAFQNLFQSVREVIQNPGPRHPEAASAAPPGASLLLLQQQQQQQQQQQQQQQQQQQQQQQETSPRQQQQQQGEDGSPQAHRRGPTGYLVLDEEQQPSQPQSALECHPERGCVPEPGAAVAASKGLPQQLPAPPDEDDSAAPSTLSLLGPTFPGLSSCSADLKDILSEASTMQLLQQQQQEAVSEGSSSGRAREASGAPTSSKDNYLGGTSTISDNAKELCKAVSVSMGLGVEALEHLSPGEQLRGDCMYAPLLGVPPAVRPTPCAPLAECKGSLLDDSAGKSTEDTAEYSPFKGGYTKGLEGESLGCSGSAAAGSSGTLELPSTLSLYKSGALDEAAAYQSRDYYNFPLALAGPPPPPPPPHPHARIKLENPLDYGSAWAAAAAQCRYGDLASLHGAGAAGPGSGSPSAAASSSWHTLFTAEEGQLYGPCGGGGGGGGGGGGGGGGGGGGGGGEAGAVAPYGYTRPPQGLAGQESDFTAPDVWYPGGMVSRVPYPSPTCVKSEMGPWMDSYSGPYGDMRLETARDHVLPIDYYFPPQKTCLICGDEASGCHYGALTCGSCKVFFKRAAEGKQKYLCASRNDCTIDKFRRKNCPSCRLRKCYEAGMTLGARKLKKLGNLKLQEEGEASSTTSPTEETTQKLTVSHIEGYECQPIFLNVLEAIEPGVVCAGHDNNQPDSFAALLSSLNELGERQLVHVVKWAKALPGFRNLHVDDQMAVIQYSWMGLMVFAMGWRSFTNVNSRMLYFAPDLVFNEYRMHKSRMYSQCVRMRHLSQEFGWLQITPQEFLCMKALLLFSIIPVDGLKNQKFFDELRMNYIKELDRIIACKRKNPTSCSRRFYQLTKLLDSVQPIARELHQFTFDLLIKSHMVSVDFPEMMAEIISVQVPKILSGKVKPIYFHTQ

human AR [2] = molecular target: T1, human AR; assay: Co-transfection assay, AR agonist activity, CV-1 cells; assay type: cell-based; parameters: expressed in transfected cells; host or cells: CV-1 cells (African green monkey kidney fibroblasts), transient transfection with pRShAR; conditions: for AR Agonist CV-1 Cells Efficacy (%): percent maximal response relative to reference agonist DHT
human AR [3] = molecular target: T1, human AR; assay: Co-transfection assay, AR antagonist activity in presence of DHT, CV-1 cells; assay type: cell-based; parameters: expressed in transfected cells; host or cells: CV-1 cells (African green monkey kidney fibroblasts), transient transfection with pRShAR; conditions: CV-1 cells; for IC50: antagonist potency or IC50, DHT at its EC50 concentration; for AR Antagonist CV-1 Cells Efficacy (%): percent maximal inhibition, DHT at its EC50 concentration
[4] = AR Agonist CV-1 Cells Potency (nM), agonist potency or EC50
[5] = AR Antagonist CV-1 Cells Potency (nM)
[6] = agonist potency or EC50, read-out: AR Agonist CV-1 Cells Potency
[7] = read-out: AR Antagonist CV-1 Cells Potency

Compound | Ki (human AR [1]; AR Binding Ki (nM)) [nM] | EC50 (human AR [2]; [4]) [nM] | AR Agonist CV-1 Cells Efficacy (%) (human AR [2]) | IC50 (human AR [3]; [5]) [nM] | AR Antagonist CV-1 Cells Efficacy (%) (human AR [3]) | Ki (human AR [1]; read-out: AR Binding Ki) [nM] | EC50 (human AR [2]; [6]) [nM] | IC50 (human AR [3]; [7]) [nM]
C=CCc1c(C)[nH]c2c1ccc1[nH]c(=O)cc(C(F)(F)F)c12 [Compound 173, 7-Allyl-6-methyl-4-trifluoromethyl-5H-pyrrolo[2,3-f]quinolin-2(1H)-one] | 80 | 138 | 41% | 1 | 56% | – | – | –
CC1(C)CCc2c(ccc3[nH]c(=O)cc(C(F)(F)F)c23)N1 [Compound 104, 5,6,7,8-Tetrahydro-7,7-dimethyl-4-trifluoromethylpyridino[3,2-f]quinolin-2(1H)-one] | 15 | 183 | 78% | 1.8 | 50% | – | – | –
5-(2-Ethoxycarbonylethyl)-6-methyl-7-(2,2,2-trifluoroethyl)-4-trifluoromethyl-7H-pyrrolo[3,2-f]quinolin-2(1H)-one [Compound 162] | – | – | 71% | – | na (na = not active (i.e. efficacy of <20 and potency of >10,000)) | 113 | 20 | > 10000
(+)-6,7-Dihydro-6-ethyl-4-trifluoromethyl-8H-pyrano[3,2-g]quinolin-2(1H)-one [Compound 218] | – | – | 82% | – | na (na = not active (i.e. efficacy of <20 and potency of >10,000)) | 4.1 | 10 | > 10000
CC1(C)C=Cc2c(ccc3[nH]c(=O)cc(C(F)(F)F)c23)N1 [Compound 106, 7,8-Dihydro-7,7-dimethyl-4-trifluoromethylpyridino[3,2-f]quinolin-2(1H)-one] | 45 | 12 | 108% | > 10000 | na (na = not active (i.e. efficacy of <20 and potency of >10,000)) | – | – | –
CCN1c2cc3c(C(F)(F)F)cc(=O)[nH]c3cc2C2CCCC21 (racemic) [Compound 122, (±)-6,6a 7,8,9,9a(cis)-Hexahydro-6-ethyl-4-trifluoromethylcyclopentano-[i]pyrrolo[2,3-g]quinolin-2(1H)-one] | 21 | 34 | 59% | > 10000 | na (na = not active (i.e. efficacy of <20 and potency of >10,000)) | – | – | –
O=c1cc(C(F)(F)F)c2c3c(ccc2[nH]1)N(CC(F)(F)F)C1CCCCC31 (racemic) [Compound 132, (±)-4c,5,6,7,8,8a(cis),9-Heptahydro-9-(2,2,2-trifluoroethyl)-4-trifluoro-methyl-9H-cyclohexano[g]pyrrolo[3,2-f]quinolin-2(1H)-one] | 21 | 4.8 | 70% | > 10000 | na (na = not active (i.e. efficacy of <20 and potency of >10,000)) | – | – | –
CC1CCc2cc3[nH]c(=O)cc(C(F)(F)F)c3cc2N1CC(F)(F)F (centres unmarked) [Compound 197, 4-Trifluoromethyl-7-methyl-6-(2,2,2-trifluoroethyl)-6,7,8,9-tetrahydropyrido[2,3-g]quinolin-2(1H)-one] | 79 | 12 | 66% | > 10000 | na (na = not active (i.e. efficacy of <20 and potency of >10,000)) | – | – | –
O=c1cc(C(F)(F)F)c2c3c(ccc2[nH]1)N(CC(F)(F)F)C1CCCC31 (racemic) [Compound 119, (±)-4c,5,6,7,7a(cis),8-Hexahydro-8-(2,2,2-trifluoroethyl)-4-trifluoromethylcyclopentano-[g]pyrrolo[3,2-f]quinolin-2(1H)-one] | 2.6 | 2.5 | 94% | > 10000 | na (na = not active (i.e. efficacy of <20 and potency of >10,000)) | – | – | –
CC1c2c(ccc3[nH]c(=O)cc(C(F)(F)F)c23)N(CC(F)(F)F)C1C (racemic) [Compound 123, (±)-5,6-Dihydro-5,6-cis-dimethyl-7-(2,2,2-trifluoroethyl)-4-trifluoromethyl-7H-pyrrolo[3,2-f]quinolin-2(1H)-one] | 14 | 1.4 | 104% | > 10000 | na (na = not active (i.e. efficacy of <20 and potency of >10,000)) | – | – | –
Cc1[nH]c2c(ccc3[nH]c(=O)cc(C(F)(F)F)c32)c1CCO [Compound 177, 7-(2-Hydroxyethyl)-6-methyl-4-trifluoromethyl-5H-pyrrolo[2,3-f]quinolin-2(1H)-one] | 31 | > 10000 | na (na = not active (i.e. efficacy of <20 and potency of >10,000)) | 790 | 98% | – | – | –
O=c1cc(C(F)(F)F)c2cc3c(cc2[nH]1)CCCN3CC(F)(F)F [Compound 198, 4-Trifluoromethyl-6-(2,2,2-trifluoroethyl)-6,7,8,9-tetrahydropyrido[2,3-g]quinolin-2(1H)-one] | 58 | 1.7 | 47% | > 10000 | na (na = not active (i.e. efficacy of <20 and potency of >10,000)) | – | – | –
5,6-Dimethyl-7-(2,2,2-trifluoroethyl)-4-trifluoromethyl-7H-pyrrolo[3,2-f]quinolin-2(1H)-one [Compound 150] | – | – | 95% | – | na (na = not active (i.e. efficacy of <20 and potency of >10,000)) | 4 | 2.1 | > 10000
5-Ethyl-6-propyl-7-(2,2,2-trifluoroethyl)-4-trifluoromethyl-7H-pyrrolo[3,2-f]quinolin-2(1H)-one [Compound 155] | – | – | 59% | – | na (na = not active (i.e. efficacy of <20 and potency of >10,000)) | 7.4 | 9.4 | > 10000
CCC1CCOc2cc3c(cc21)c(C(F)(F)F)c(F)c(=O)n3C (racemic) [Compound 221, (±)-6,7-Dihydro-6-ethyl-3-fluoro-4-trifluoromethyl-1-methyl-8H-pyrano[3,2-g]quinolin-2(1H)-one] | 29 | > 10000 | na (na = not active (i.e. efficacy of <20 and potency of >10,000)) | 311 | 78% | – | – | –
O=c1cc(C(F)(F)F)c2c3c(ccc2[nH]1)N(CC(F)(F)F)C1CCCC31 (single isomer, unassigned; (-)) [Compound 179, (−)-4c,5,6,7,7a(cis),8-Hexahydro-8-(2,2,2-trifluoroethyl)-4-trifluoromethylcyclopentano-[g]pyrrolo[3,2-f]quinolin-2(1H)-one] | 4.1 | 1.3 | 91% | > 10000 | na (na = not active (i.e. efficacy of <20 and potency of >10,000)) | – | – | –
CC1CCc2cc3[nH]c(=O)cc(C(F)(F)F)c3cc2N1CC1CC1 (centres unmarked) [Compound 195, 4-Trifluoromethyl-7-methyl-6-cyclopropylmethyl-6,7,8,9-tetrahydropyrido[2,3-g]quinolin-2(1H)-one] | 20 | – | 78% | > 10000 | na (na = not active (i.e. efficacy of <20 and potency of >10,000)) | – | – | –
6-Ethyl-5-methyl-7-(2,2,2-trifluoroethyl)-7H-pyrrolo[3,2-f]quinolin-2(1H)-one [Compound 151] | – | – | 36% | – | 57% | 48 | 120 | 5.9

Reference: US7727980B2, “Tricyclic androgen receptor modulator compounds and methods” (priority 2001, dated 2010)
